Assay results published in patent US10006166B2, “Integrating the production of carboxylated cellulose nanofibrils and cellulose nanocrystals using recyclable organic acids” (The United States of America as Represented by the …, priority 2016, dated 2018).

Protocol: UV absorption spectrophotometric methods were employed for rapidly determining the soluble acid concentration in the solution. The UV-absorption spectra for oxalic, maleic, and toluenesulfonic acids are shown in FIGS. 3, 4, and 5, respectively.
The solubilities of oxalic, maleic, and toluenesulfonic acids at different temperatures were determined from UV absorption measurements in saturated solutions at different temperatures. The measured solubility data were fit to an exponential function as shown by Eq. (1). The maximum acid concentration that can be used at a given temperature can be determined from the exponential expression.
[formula] Where s0 and B are fitting constants and listed in TABLE 1 for the three acids studied while T is in degree Kelvin.

Fitting constant B for predicting solubility using Eq. (1): 2,461
Fitting constant s0 for predicting solubility using Eq. (1): 3.14 × 10^5
Compound: O=C(O)/C=C\C(=O)O [Maleic acid]
